Like-named read-outs stand apart in the source and are kept apart here.
How the values were obtained:
[1] = biological target: T1, pDNA-PK ser2056 induction in HCT116 spheroids (Homo sapiens, UniProt P78527); assay: Multicellular tumour spheroid + radiation, pDNA-PK inhibition, HCT116; assay type: cell-based; settings: 20 Gy
T1 construct: endogenous in cells; host or cells: HCT116 multicellular tumour spheroids
Procedure: Multicellular tumour spheroids determination of compound inhibition of pDNA-PK induction following radiation. Tumour spheroids were grown to approximately 0.5 mm in diameter and irradiated with 20 Gy in combination with inhibitor test compounds to determine their potency. Inhibitor concentration for 50% reduction in pDNA-PK induction (IC50) was determined via immunohistochemical staining in spheroid cryosections taken 2 hours following radiation.
Spheroid, Cell Line: […], Immunohistochemical endpoint, pDNA-PK inhibition, EC50 in μm.
(§1) Spheroid+radiation pDNA-PK. Radiation: 20 Gy. Drug: serial dilution 5 or 10 μM down to 3.5 nM (11 wells). Spheroids: 3-6 spheroids per well (300-500 μm diameter). 20% O2 and 5% CO2. 96 well plate format.
Protocol: pre-incubate 1 hours with drug, irradiate with 20 Gy, post-incubate 2 hours with drug, freeze and cryosection ×3 replicates.
Endpoint: fluorescent immunostin pDNA-PK ser2056 and image on microscope.
Analysis: determine EC50 concentration that decreases pDNA-PK induction by 50% after radiation.
Multicellular tumour spheroids determination of compound inhibition of pDNA-PK induction following radiation. Tumour spheroids were grown to approximately 0.5 mm in diameter and irradiated with 20 Gy in combination with inhibitor test compounds to determine their potency. Inhibitor concentration for 50% reduction in pDNA-PK induction (IC50) was determined via immunohistochemical staining in spheroid cryosections taken 2 hours following radiation. For cell survival endpoint 8 Gy radiation was used and 3 hours following radiation spheroids were dissociated, counted and plated for colony forming endpoint.
as §1, with “format. Endpoint: fluorescent immunostain pDNA-PK ser2056 and image on microscope. Analysis: determine EC50 concentrations that decreases pDNA-PK induction […] after irradiation.” for “format.”
Multicellular tumour spheroids were used to determine potency of test compounds in a 3D tissue environment using inhibition of pDNA-PK induction following radiation or cell survival as the endpoint. For the pDNA-PK endpoint HCT116 or FaDU tumour spheroids were grown to approximately 0.5 mm in diameter and irradiated with 20 Gy in combination with inhibitor test compounds to determine their potency. Experiments were carried out in 96 well plates containing 0.7 mls of MEM media containing 10% FBS and 10 mM glucose under 20% O2 & 5% CO2 at 37° C. Following dilution of compounds 1:1000 from DMSO stocks, compounds were serially diluted from 10 μM down to 3.5 nM and 5-10 spheroids added. 96 well plates were constantly stirred to avoid spheroids settling during the course of the experiment. The inhibitor concentration for 50% reduction in pDNA-PK induction (EC50) was determined via immunohistochemical staining in spheroid cryosections taken 2 hours following radiation using anti-pDNA-PK (ser 2056) and fixed immediately in formalin following sectioning. For cell survival endpoint 8 Gy radiation was used and, 3 hours following radiation, spheroids were dissociated, counted and plated for colony forming endpoint. Data presented in the table compound potency as EC50 [μM].

[2] = biological target: T2, DNA-PK (Homo sapiens, UniProt P78527); assay: DNA-PK Assay for Biochemical Enzymatic Inhibition (ADP Glo Kinase assay); settings: Table 1
T2 construct: purchased Invitrogen PR9107A
Procedure: A biochemical assay was performed to identify IC50 values against DNA-PK activity in a two-step reaction with a kinase reaction followed by ADP Glo™ Kinase assay Kit (Promega V9102).
Three-fold serial dilutions of compounds in DMSO were prepared in kinase assay buffer (50 mM HEPES pH 7.5, 20 mM MgCl2, 100 mM KCl, 50 μM DTT, 10 μg/ml calf thymus DNA, 0.01% Tween 20). Kinase assay buffer was used to prepare compound treatments to 0.02% DMSO (dimethyl sulphoxide) content. DMSO controls were prepared to produce a maximum and minimum luminescence signal for normalization. Substrate (Anaspec, AS-60210-5) and ATP (Promega V9102) and ATP mix was prepared by dilution in kinase assay buffer for 434.4 μM and 64.4 μM final assay concentrations, respectively. Compounds and control were added to 25 ng DNA-PK enzyme (Invitrogen, PR9107A) diluted in kinase buffer in assay plate (Corning 267459) and incubated for 15 minutes at room temperature prior to addition of substrate and ATP mix.
Throughout the assay, each time a reagent was added to the microplate, it was centrifuged for 1 minute at 1300 rcf. All reagents were added, and incubations carried out at room temperature. The reaction was then incubated for 60 minutes. ADP-ATP standards at 0, 4, 10, 40, 80, and 100% ADP (prepared as specified in the ADP Glo™ Kinase assay kit) were also added to the microplate at a volume equal to the total kinase reaction. The ADP Glo™ Kinase Assay kit was then used to quantify DNA-PK activity: following the 60-minute incubation, a 1:1 volume of ADP Glo reagent was added to all wells, then following a further 45-minute incubation, a 1:1 volume of Kinase Detection Reagent was added to all wells. After this two-step assay, plates were incubated in a Synergy-Neo2 plate reader for 30 minutes with gentle shaking, followed by endpoint luminescent read Luminescence data was normalized by subtracting the background signal and expressing all background-adjusted values as a percentage of the average maximum signal. The data was then expressed as percent inhibition by subtracting from 100% (i.e. maximum luminescent signal will be 0% inhibition) and the resulting data plotted against ten concentration points on a logarithmic scale, using GraphPad Prism. Non-linear regression analysis was performed on each concentration response curve and the log [inhibitor] vs response—variable slope (four parameters) equation was selected to generate IC50 values.

[3] = biological target: T3, DNA-PK phosphorylation at Serine 2056 (Homo sapiens, UniProt P78527); assay: Cellular Assay for Inhibition of DNA-PK Phosphorylation at Serine 2056 (FaDu cells, neocarzinostatin, sandwich ELISA); assay type: cell-based; settings: Table 1
T3 construct: host or cells: FaDu
Summary of the method: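 Readout was pSer2056 and total DNA-PK, measured by sandwich ELISA on protein-normalized lysates. Prior to lysis, compound was applied to FaDu cells for 1 h (0.3% DMSO), followed by 2 h of 1 μg/mL neocarzinostatin. IC50 values were fitted from log concentration versus % inhibition normalized to DMSO and NCS controls.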

[4] = Example 7, spheroid, cell line HCT115 [sic], 20% O2, read-out: EC50 (pDNA-PK inhibition, immunohistochemical endpoint)
[5] = Example 9 Study 2, 20% O2, read-out: Spheroid Cell line: HCT116 Immunohistochemical endpoint pDNA-PK inhibition EC50
[6] = Example 8, spheroid, read-out: Cell line: HCT116 Immunohistochemical endpoint pDNA-PK inhibition EC50

| Structure (SMILES) | EC50 [1, 4] | EC50 [1, 5] | IC50 [2] | IC50 [3] | EC50 [1, 6] |
| --- | --- | --- | --- | --- | --- |
| c1cnc2cc(N3CCOCC3)nc(O[C@H]3CC[C@@H](Nc4ccc5nccn5n4)CC3)c2c1 [Compound 90, N-((1s,4s)-4-((7-Morpholino-1,6-naphthyridin-5-yl)oxy)cyclohexyl)imidazo[1,2-b]pyridazin-6-amine] | 1000 to 10000 nM | 1000 to 10000 nM | 0.5 to 1 nM | 100 to 1000 nM | – |
| c1cnc2cc(N3CCOCC3)nc(O[C@H]3CC[C@@H](Nc4ccc5ncnn5c4)CC3)c2c1 [Compound 92, N-((1s,4s)-4-((7-Morpholino-1,6-naphthyridin-5-yl)oxy)cyclohexyl)-[1,2,4]triazolo[1,5-a]pyridin-6-amine] | 1000 to 10000 nM | 1000 to 10000 nM | 1 to 10 nM | 100 to 1000 nM | – |
| CCCC(=O)N[C@H]1CC[C@@H](Oc2nc(N3CCOCC3)cc3ncccc23)CC1 [Compound 103, N-((1s,4s)-4-((7-Morpholino-1,6-naphthyridin-5-yl)oxy)cyclohexyl)butyramide] | 10000 to 100000 nM | 10000 to 100000 nM | 1 to 10 nM | 100 to 1000 nM | 10000 to 100000 nM |
| O=C(N[C@H]1CC[C@@H](Oc2nc(N3CCOCC3)cc3ncccc23)CC1)c1ccccc1 [Compound 110, N-((1s,4s)-4-((7-Morpholino-1,6-naphthyridin-5-yl)oxy)cyclohexyl)benzamide] | 1000 to 10000 nM | 1000 to 10000 nM | < 0.5 nM | < 100 nM | 1000 to 10000 nM |
| O=C(N[C@H]1CC[C@@H](Oc2nc(N3CCOCC3)cc3ncccc23)CC1)C1CCCO1 (stereo partly drawn) [Compound 134, N-((1s,4s)-4-((7-Morpholino-1,6-naphthyridin-5-yl)oxy)cyclohexyl)tetrahydrofuran-2-carboxamide] | 10000 to 100000 nM | 10000 to 100000 nM | 1 to 10 nM | 1000 to 10000 nM | 10000 to 100000 nM |
| O=C(N[C@H]1CC[C@@H](Oc2nc(N3CCOCC3)cc3ncc(Br)cc23)CC1)c1ncccn1 [Compound 176, N-((1s,4s)-4-((3-bromo-7-morpholino-1,6-naphthyridin-5-yl)oxy)cyclohexyl)pyrimidine-2-carboxamide] | 1000 to 10000 nM | 1000 to 10000 nM | 0.5 to 1 nM | 100 to 1000 nM | – |
| CCS(=O)(=O)Nc1cnc2cc(N3CCOCC3)nc(O[C@H]3CC[C@@H](Nc4ncccn4)CC3)c2c1 [Compound 188, N-(7-morpholino-5-(((1s,4s)-4-(pyrimidin-2-ylamino)cyclohexyl)oxy)-1,6-naphthyridin-3-yl)ethanesulfonamide] | 1000 to 10000 nM | 1000 to 10000 nM | < 0.5 nM | 100 to 1000 nM | – |
| CN(c1ncccn1)[C@H]1CC[C@@H](Oc2nc(N3CCOCC3)cc3ncc(NS(C)(=O)=O)cc23)CC1 [Compound 198, N-(5-(((1s,4s)-4-(methyl(pyrimidin-2-yl)amino)cyclohexyl)oxy)-7-morpholino-1,6-naphthyridin-3-yl)methanesulfonamide] | 500 to 1000 nM | 500 to 1000 nM | 0.5 to 1 nM | < 100 nM | – |
| N#Cc1cnc2cc(N3CCOCC3)nc(O[C@H]3CC[C@@H](Nc4ncccn4)CC3)c2c1 [Compound 200a, 7-morpholino-5-(((1s,4s)-4-(pyrimidin-2-ylamino)cyclohexyl)oxy)-1,6-naphthyridine-3-carbonitrile] | 1000 to 10000 nM | 1000 to 10000 nM | 0.5 to 1 nM | 100 to 1000 nM | – |
| COc1cnc(N[C@H]2CC[C@@H](Oc3nc(N4CCOCC4)cc4ncc(I)cc34)CC2)nc1 [Compound 201, N-((1s,4s)-4-((3-iodo-7-morpholino-1,6-naphthyridin-5-yl)oxy)cyclohexyl)-5-methoxypyrimidin-2-amine] | 10000 to 100000 nM | 10000 to 100000 nM | 1 to 10 nM | 10000 to 30000 nM | – |

Other lines, results leading:

| EC50 [1, 4] | EC50 [1, 5] | IC50 [2] | IC50 [3] | EC50 [1, 6] | Structure (SMILES) |
| --- | --- | --- | --- | --- | --- |
| 500 to 1000 nM | 500 to 1000 nM | < 0.5 nM | 1000 to 10000 nM | – | O=C(O)c1cnc(N[C@H]2CC[C@@H](Oc3nc(N4CCOCC4)cc4ncccc34)CC2)nc1 [Compound 51, 2-(((1s,4s)-4-((7-morpholino-1,6-naphthyridin-5-yl)oxy)cyclohexyl)amino)pyrimidine-5-carboxylic acid] |
| 1000 to 10000 nM | 1000 to 10000 nM | < 0.5 nM | 100 to 1000 nM | – | Clc1nc(N[C@H]2CC[C@@H](Oc3nc(N4CCOCC4)cc4ncccc34)CC2)c2occc2n1 [Compound 80b, 2-chloro-N-((1s,4s)-4-((7-morpholino-1,6-naphthyridin-5-yl)oxy)cyclohexyl)furo[3,2-d]pyrimidin-4-amine] |
| 10000 to 100000 nM | 10000 to 100000 nM | 1 to 10 nM | 1000 to 10000 nM | – | Cc1cc2ncnn2cc1N[C@H]1CC[C@@H](Oc2nc(N3CCOCC3)cc3ncccc23)CC1 [Compound 91, 7-Methyl-N-((1s,4s)-4-((7-morpholino-1,6-naphthyridin-5-yl)oxy)cyclohexyl)-[1,2,4]triazolo[1,5-a]pyridin-6-amine] |
| 10000 to 100000 nM | 10000 to 100000 nM | 1 to 10 nM | 1000 to 10000 nM | – | CC(C)S(=O)(=O)Nc1cnc2cc(N3CCOCC3)nc(O[C@H]3CC[C@@H](Nc4ncccn4)CC3)c2c1 [Compound 187, N-(7-morpholino-5-(((1s,4s)-4-(pyrimidin-2-ylamino)cyclohexyl)oxy)-1,6-naphthyridin-3-yl)propane-2-sulfonamide] |
| 10000 to 100000 nM | 10000 to 100000 nM | 1 to 10 nM | 1000 to 10000 nM | – | CCCS(=O)(=O)Nc1cnc2cc(N3CCOCC3)nc(O[C@H]3CC[C@@H](Nc4ncccn4)CC3)c2c1 [Compound 189, N-(7-morpholino-5-(((1s,4s)-4-(pyrimidin-2-ylamino)cyclohexyl)oxy)-1,6-naphthyridin-3-yl)propane-1-sulfonamide] |

Reference: patent publication US20240246960A1 (adMare Therapeutics Society, priority 2021, published 2024)
